Measurements published in patent US12577238B2, “Compositions and methods for modulating inflammatory and degenerative disorder” (University of Southern California, priority 2018, dated 2026).
“Also recorded” adds a separate entry of the source.

Experiments:
[1] = system: pig articular cartilage explants; assay: Matrix degradation assay, OSM-driven, pig articular cartilage explants; type: cell-based; settings: driven by OSM
Protocol: FIG. 22A-C show matrix degradation assays.
72 hour exposure to the drug and OSM. […] Effect is concentration dependent and increases with increase in drug concentration.
(§1) Firstly, RCGD 423 was a hit from a library; this made the depth of the discovery surrounding the technology less comprehensive. Additionally, the physical properties of RCGD 423 (solubility, potency, functional groups) could be improved. Significant gains in these areas could potentially result in a first-in-class injectable for the treatment of post-traumatic OA. Moreover, the potential risks associated with promoting MYC stabilization and proliferation in gp130^+ cells as well as large increases in active STAT3 protein was of concern. […] These compounds were then screened in adult pig articular chondrocytes and cartilage explants, seeking compounds that could inhibit the catabolic effects of OSM but not drive increases in MYC and pSTAT3 protein levels. […] Together, these preliminary data identify CX-011 (B8) as a highly anti-inflammatory, anti-catabolic alternative to RCGD 423, with increased “drug-like” properties and reduced potential molecular liabilities.

[2] = system: adult pig articular chondrocytes; assay: Western blot of signaling proteins (pSTAT3, MYC, MAPK, AKT, NF-κB) in pig articular chondrocytes; type: cell-based; settings: for levels of active STAT3 (pSTAT3) and MYC proteins: Western blot, analogs at 10 μM; for activation of the MAPK, AKT and NF-κB pathways: adult pig articular chondrocytes
Protocol: (A) Class 1 molecules (marked by red arrows) activate STAT3 and MYC signaling pathways wile Class 2 molecules (blue arrows) have no stimulatory effects on STAT3 and MYC signaling in chondrocytes as determined by western blot analysis. (B) Structures of the most prominent Class 1 and Class 2 molecules. […] All drugs were tested at 10 μM and assessed using Western Blot.
All drugs tested at 10 μM and assessed using Western Blot.
(§2) To begin to address the mechanism of action of RCGD 423, adult pig chondrocytes were incubated with the drug, IL-6 family cytokines or the pro-catabolic cytokines TNF-α and IL-1β and measured levels of various proteins downstream of these cytokines that are known to drive catabolic responses (FIG. 3).
as §1

[3] = system: ADAMTS4/5 and MMP13; assay: qPCR for proteolytic enzymes in adult pig chondrocytes; type: cell-based
Protocol: as §2

[4] = biological target: T1, gp130 (Homo sapiens, UniProt P40189); assay: OSM-mediated activation of gp130 in adult human articular chondrocytes; type: cell-based; settings: three independent donors
T1 construct: endogenous in cells; host or cells: adult human articular chondrocytes (three donors)
T1 sequence (P40189 23-918): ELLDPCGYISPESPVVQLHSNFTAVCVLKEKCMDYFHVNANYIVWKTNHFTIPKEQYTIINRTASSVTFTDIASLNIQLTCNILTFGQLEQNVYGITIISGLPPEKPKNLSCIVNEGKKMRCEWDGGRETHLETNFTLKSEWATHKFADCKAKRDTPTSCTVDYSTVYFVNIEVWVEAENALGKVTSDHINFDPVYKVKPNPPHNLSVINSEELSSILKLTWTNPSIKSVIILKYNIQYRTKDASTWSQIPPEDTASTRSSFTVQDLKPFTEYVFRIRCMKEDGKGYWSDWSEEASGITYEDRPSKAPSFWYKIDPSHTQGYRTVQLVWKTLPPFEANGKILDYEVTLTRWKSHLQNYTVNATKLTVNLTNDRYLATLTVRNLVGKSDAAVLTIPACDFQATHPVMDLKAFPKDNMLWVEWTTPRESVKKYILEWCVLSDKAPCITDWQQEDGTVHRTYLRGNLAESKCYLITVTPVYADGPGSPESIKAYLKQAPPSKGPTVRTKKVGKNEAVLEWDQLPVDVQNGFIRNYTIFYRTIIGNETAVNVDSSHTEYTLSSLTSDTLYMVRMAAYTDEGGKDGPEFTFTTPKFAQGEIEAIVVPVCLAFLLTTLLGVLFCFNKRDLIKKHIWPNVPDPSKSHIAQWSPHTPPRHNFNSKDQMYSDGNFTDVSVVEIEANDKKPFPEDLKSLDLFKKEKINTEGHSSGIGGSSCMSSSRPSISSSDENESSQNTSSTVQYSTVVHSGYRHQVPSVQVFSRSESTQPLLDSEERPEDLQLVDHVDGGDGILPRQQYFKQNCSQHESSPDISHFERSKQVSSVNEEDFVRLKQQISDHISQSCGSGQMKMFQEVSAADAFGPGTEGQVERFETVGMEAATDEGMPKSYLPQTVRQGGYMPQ
Excerpt: 423F is the positive control drug. Adult human articular chondrocytes from three independent donors were used to generate the results.
Adult human articular chondrocytes from three independent donors were used to generate the results.
Adult human articular chondrocytes from three independent donors were used.

[5] = system: adult pig articular chondrocytes; assay: Proteins mediating pro-inflammatory signals with or without OSM; type: cell-based
Excerpt: as §1

[6] = biological target: T2, gp130 (Rattus norvegicus, UniProt P40190); assay: Injection into rat knees, pSTAT3 and MYC levels; type: in vivo; settings: co-injection with RCGD 423 into rat knees
T2 construct: from tissue; host or cells: rat knee joint in vivo (Sprague-Dawley wild-type in the CFA model)
T2 sequence (P40190 23-918): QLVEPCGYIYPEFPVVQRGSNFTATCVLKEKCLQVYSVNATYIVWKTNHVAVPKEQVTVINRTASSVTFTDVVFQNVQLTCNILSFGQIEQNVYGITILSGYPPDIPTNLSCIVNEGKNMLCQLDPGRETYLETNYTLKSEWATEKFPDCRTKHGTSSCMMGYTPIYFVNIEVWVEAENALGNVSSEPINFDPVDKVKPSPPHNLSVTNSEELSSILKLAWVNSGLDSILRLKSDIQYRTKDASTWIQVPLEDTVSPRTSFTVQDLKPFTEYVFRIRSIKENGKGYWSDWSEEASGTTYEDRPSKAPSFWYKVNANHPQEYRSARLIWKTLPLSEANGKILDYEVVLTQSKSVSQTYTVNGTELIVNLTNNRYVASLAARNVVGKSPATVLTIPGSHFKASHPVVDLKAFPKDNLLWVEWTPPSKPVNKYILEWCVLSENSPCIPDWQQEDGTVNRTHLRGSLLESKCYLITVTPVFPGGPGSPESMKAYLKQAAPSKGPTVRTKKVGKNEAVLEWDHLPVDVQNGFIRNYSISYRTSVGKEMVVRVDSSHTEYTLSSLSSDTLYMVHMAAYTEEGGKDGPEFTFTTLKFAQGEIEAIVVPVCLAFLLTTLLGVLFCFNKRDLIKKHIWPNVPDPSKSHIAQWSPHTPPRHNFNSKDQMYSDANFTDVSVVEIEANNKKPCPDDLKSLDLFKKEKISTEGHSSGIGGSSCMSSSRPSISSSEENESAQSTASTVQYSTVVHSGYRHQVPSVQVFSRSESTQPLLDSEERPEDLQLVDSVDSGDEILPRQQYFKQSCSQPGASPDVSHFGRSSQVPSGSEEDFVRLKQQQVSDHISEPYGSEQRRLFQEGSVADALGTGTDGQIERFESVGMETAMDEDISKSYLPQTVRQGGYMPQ
Protocol: Based on this, it was hypothesized that RCGD 423 acts through gp130 by promoting stable homodimers in the absence of ligand. To confirm that RCGD 423 acts through gp130, the gp130 null cell line Ba/F3 cells was used. Ba/F3 cells were transfected with either full-length gp130 or a mutant gp130 lacking domain 2 (ΔD2), which contains the predicted binding site for RCGD 423 (FIG. 7). […] To verify the specificity of RCGD 423 in vivo, the compound was injected into rat knees in the presence of the small molecule gp130 inhibitor SC144 or a blocking antibody specific for domain 2 of gp130. […] The ability of RCGD 423 to act via inducing formation of gp130 homodimers was then examined by expressing tagged versions of gp130 in 293T cells. In this system, only homodimeric complexes can contain both tagged versions of gp130 (FIG. 9).

[7] = system: MMP13 and ADAMTS4; assay: OSM-induced MMP13 and ADAMTS4 levels; type: cell-based

Molecule: Cc1ccc(-c2nc(NC(=O)c3ccccn3)cs2)cc1 [B843]
- breakdown of collagen and aggrecan (aggrecan-neo, collagen-neo epitopes) [1]: can still strongly prevent the breakdown of collagen and aggrecan

Molecule: LIF: leukemia inhibitory factor, IL-6 family cytokine
- levels of active STAT3 (pSTAT3) and MYC proteins [2]: increased levels of active STAT3 and MYC proteins
- activation of the MAPK, AKT and NF-κB pathways [2]: activated the MAPK, AKT and NF-κB pathways
- expression of proteolytic enzymes ADAMTS4/5 and MMP13 [3]: significant increases in the expression of these genes

Molecule: Cc1ccccc1-c1cccc(NC(=O)c2ccno2)n1 [B849]
- breakdown of collagen and aggrecan (aggrecan-neo, collagen-neo epitopes) [1]: can still strongly prevent the breakdown of collagen and aggrecan

Molecule: Cc1ccc(-c2csc(NC(=O)c3cnco3)n2)cc1 [B803]
- OSM-mediated activation of gp130 [4]: inhibit OSM-mediated activation of gp130; also recorded: inhibit OSM-mediate d activation of gp130

Molecule: Cc1ccc(-c2cccc(NC(=O)c3ccccn3)n2)cc1 [B839]
- breakdown of collagen and aggrecan (aggrecan-neo, collagen-neo epitopes) [1]: strongly prevent the breakdown of collagen and aggrecan

Molecule: Cc1ccc(-c2csc(NC(=O)c3ccno3)n2)cc1 [B8]
- levels of active STAT3 (pSTAT3) and MYC proteins ([2]; listed as CX-011): do not affect levels of pSTAT3 or MYC protein
- levels of active STAT3 (pSTAT3) and MYC proteins ([2]; listed as CX-011 (B8)): did not increase levels of pSTAT3 and MYC
- increases in proteins mediating pro-inflammatory signals ([5]; in the presence of OSM): strongly inhibits increases in these proteins in the presence of OSM
- endogenous levels of proteins mediating pro-inflammatory signals ([5]; without OSM): little effect
- breakdown of collagen and aggrecan (aggrecan-neo, collagen-neo epitopes) ([1]; listed as CX-011): prevents the breakdown of collagen and aggrecan
- increase in catalytic enzymes / induction of proteolytic gene expression ([1]; listed as CX-011): prevents
- breakdown of collagen and aggrecan (aggrecan-neo, collagen-neo epitopes) ([1]; listed as CX-011 (B8)): almost completely blocked the generation of aggrecan and collagen neoepitopes
- increase in catalytic enzymes / induction of proteolytic gene expression ([1]; listed as CX-011 (B8)): reduced the induction of proteolytic gene expression
- OSM-mediated activation of gp130 [4]: inhibit OSM-mediated activation of gp130

Molecule: Cc1ccc(-c2cccc(NC(=O)c3ccno3)n2)cc1 [B810]
- levels of active STAT3 (pSTAT3) and MYC proteins [2]: pSTAT3 and MYC activating
- breakdown of collagen and aggrecan (aggrecan-neo, collagen-neo epitopes) [1]: can also strongly prevent the breakdown of collagent and aggrecan

Molecule: Cc1ccccc1-c1csc(NC(=O)c2ccno2)n1 [B815]
- OSM-mediated activation of gp130 [4]: inhibit OSM-mediated activation of gp130; also recorded: inhibit OSM-mediate d activation of gp130

Molecule: O=C(Nc1nc(C2CC2)cs1)c1ccno1 [B826]
- breakdown of collagen and aggrecan (aggrecan-neo, collagen-neo epitopes) [1]: can still strongly prevent the breakdown of collagen and aggrecan
- OSM-mediated activation of gp130 [4]: strongly inhibits OSM-mediated activation of gp130

Molecule: IL-6: IL-6 family cytokine
- levels of active STAT3 (pSTAT3) and MYC proteins [2]: increased levels of active STAT3 and MYC proteins
- activation of the MAPK, AKT and NF-κB pathways [2]: activated the MAPK, AKT and NF-κB pathways
- expression of proteolytic enzymes ADAMTS4/5 and MMP13 [3]: significant increases in the expression of these genes

Molecule: Cc1ccc(-c2csc(NC(=O)c3oncc3C)n2)cc1 [B840]
- levels of active STAT3 (pSTAT3) and MYC proteins [2]: pSTAT3 and MYC activating
- breakdown of collagen and aggrecan (aggrecan-neo, collagen-neo epitopes) [1]: can also strongly prevent the breakdown of collagent and aggrecan

Molecule: O=C(NNc1nc2cc(F)ccc2n2cccc12)c1cnccn1 [SC144]
- blockade of signaling downstream of RCGD 423 [6]: completely inhibited signaling downstream of RCGD 423; also recorded: could be blocked by co-injection

B1: OSM: pro-inflammatory cytokine oncostatin M (protein, UniProt P13725 26-221, looked up)
Oncostatin-M: AAIGSCSKEYRVLLGQLQKQTDLMQDTSRLLDPYIRIQGLDVPKLREHCRERPGAFPSEETLRGLGRRGFLQTLNATLGCVLHRLADLEQRLPKAQDLERSGLNIEDLEKLQMARPNILGLRNNIYCMAQLLDNSDTAEPTKAGRGASQPPTPTPASDAFQRKLEGCRFLHGYHRFMHSVGRVFSKWGESPNRSRR
- levels of MMP13 and ADAMTS4 (degradation of cartilage matrix proteins) [7]: upregulates levels of MMP13 and ADAMTS proteases
